Laboratory results reported in patent US7259173B2, “Derivatives of 3-phenyl-n-(2-(4-benzyl)-piperidin-1-yl)-ethyl)-acrylamid with ccr-3-receptor antagonistic activity for use in the treatment of inflammations and allergic conditions” (Novartis AG, priority 2001, dated 2007).

Molecular target: T1, human CCR-3 (Homo sapiens, UniProt P51677)
T1 construct: expressed in transfected cells; host or cells: rat basophil leukemia (RBL-2H3) cells, membranes
T1 sequence (P51677 1-355): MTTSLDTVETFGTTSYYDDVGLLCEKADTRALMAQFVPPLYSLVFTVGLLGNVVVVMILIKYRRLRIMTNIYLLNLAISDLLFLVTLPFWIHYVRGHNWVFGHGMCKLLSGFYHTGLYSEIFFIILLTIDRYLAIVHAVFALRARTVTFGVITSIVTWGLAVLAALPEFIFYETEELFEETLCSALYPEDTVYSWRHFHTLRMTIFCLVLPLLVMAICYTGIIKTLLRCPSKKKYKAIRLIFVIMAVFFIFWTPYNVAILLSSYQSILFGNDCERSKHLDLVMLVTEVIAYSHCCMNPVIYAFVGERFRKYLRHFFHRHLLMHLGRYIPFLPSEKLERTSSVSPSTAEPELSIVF
Experiment: CCR-3 Binding Assay ([125I]-human eotaxin SPA)
Conditions: inhibition of [125I]-human eotaxin binding to human CCR-3, membranes of RBL-2H3 cells expressing CCR3
Description: In this assay the effect of agents of the invention on the binding of human eotaxin to human CCR-3 is determined. Recombinant cells expressing human CCR-3 are captured by wheatgerm agglutinin (WGA) polyvinyltoluidene (PVT) SPA beads (available from Amersham), through a specific interaction between the WGA and carbohydrate residues of glycoproteins on the surface of the cells. [^125I]-human eotaxin (available from Amersham) binds specifically to CCR-3 receptors bringing the [^125I]-human eotaxin in close proximity to the SPA beads. Emitted â-particles from the [^125I]-human eotaxin excite, by its proximity, the fluorophore in the beads and produce light.
Preparation of Assay Buffer: 5.96 g HEPES and 7.0 g sodium chloride are dissolved in distilled water and 1M aqueous CaCl2 (1 mL) and 1M aqueous MgCl2 (5 mL) are added. The pH is adjusted to 7.6 with NaOH and the solution made to a final volume of 1 L using distilled water. 5 g bovine serum albumin and 0.1 g sodium azide are then dissolved in the solution and the resulting buffer stored at 4° C. A Complete™ protease inhibitor cocktail tablet (available from Boehringer) is added per 50 mL of the buffer on the day of use.
Preparation of Homogenisation Buffer: Tris-base (2.42 g) is dissolved in distilled water, the pH of the solution is adjusted to 7.6 with hydrochloric acid and the solution is diluted with distilled water to a final volume of 1 L. The resulting buffer is stored at 4° C. A Complete™ protease inhibitor cocktail tablet is added per 50 mL of the buffer on the day of use.
Preparation of membranes: Confluent rat basophil leukemia (RBL-2H3) cells stably expressing CCR3 are removed from tissue culture flasks using enzyme-free cell dissociation buffer and resuspended in phosphate-buffered saline. […]
The assay is performed in a final volume of 250 μL per well of an Optiplate (ex Canberra Packard). […] The resulting scintillations are counted using a Canberra Packard TopCount, each well being counted for 1 minute. […]

IC50 [nM]	SMILES
6	COc1ccc(C#N)cc1/C=C/C(=O)N[C@H](CO)CN1CCC(Cc2ccc(Cl)cc2)CC1 [Example 2, (E)-3-(5-Cyano-2-methoxy-phenyl)-N-{(S)-2-[4-(4-chloro-benzyl)-piperidin-1-yl]-1-hydroxymethyl-ethyl}-acrylamide]
34.7	COc1ccc(Br)cc1/C=C/C(=O)NCCN1CCC(Cc2ccc(F)cc2)CC1 [Example 3, (E)-3-(5-Bromo-2-methoxy-phenyl)-N-{2-[4-(4-fluoro-benzyl)-piperidin-1-yl]-ethyl}-acrylamide]
6	COc1ccc(C#N)cc1/C=C/C(=O)N[C@H](CO)CN1CCC(Cc2ccc(F)cc2)CC1 [Example 4, (E)-3-(5-Cyano-2-methoxy-phenyl)-N-{(S)-2-[4-(4-fluoro-benzyl)-piperidin-1-yl]-1-hydroxymethyl-ethyl}-acrylaniide]
